Values quoted from earlier work in patent US20090263481A1, “LEVETIRACETAM FORMULATIONS” (priority 2008, published 2009).
Read-outs that look alike come from different tables or passages of the source.

What was measured:
[1] = not given; remark: listed apart in the source

CC[C@@H](C(N)=O)N1CCCC1=O [Levetiracetam, (−)-(S)-α-ethyl-2-oxo-1-pyrrolidine acetamide]
dose range over which pharmacokinetics are linear (in vivo): 500 to 5000 mg | absorption after oral administration (descriptive) (oral administration): rapidly and almost completely absorbed | time of peak plasma concentrations (oral administration to fasted subjects): one | decrease of Cmax by food (oral, with food): 20% | time to steady state (twice-daily dosing): 2 days | bound to plasma proteins (plasma proteins): less than 10% | solubility (descriptive) ([1]; acetonitrile): sparingly soluble | solubility (descriptive) ([1]; chloroform): freely soluble | solubility (descriptive) ([1]; ethanol): soluble | solubility (descriptive) ([1]; methanol): freely soluble | solubility (descriptive) ([1]; n-hexane): practically insoluble | aqueous solubility ([1]; water): 104 g/100 mL | solubility (descriptive) ([1]; water): very soluble
